Experimental findings from patent US12448388B2, “PRMT5 inhibitors and uses thereof” (Gilead Sciences, Inc., priority 2023, dated 2025) are described below.

The assay concerns HCT116 MTAP-deleted cell lines. In words: Cell viability assay (CellTiter-Glo, 7 days), HCT116 MTAP-deleted. It is filed as cell-based. Conditions: Homo sapiens, HCT-116; cell viability, HCT116 MTAP-deleted; class symbols; read-out: CC50. The method, then:
Control compounds were analyzed in parallel each time for quality control. In Brief, on Day -1, a serial dilution of stock compounds in DMSO was performed using BioMek liquid handlers and dispensed using Echo acoustic dispenser into 384 well plates. Both tool compounds and sample compounds were spotted in the same plate for a dose response of PRMT5 inhibitors. Compound plates were stored as frozen until the cells were ready for seeding. […] After equilibrating the plate in room temperature, the cells were incubated for 7 days inside the sealed incubator set at 37° C. with 90% humidity and 5% CO2. On Day 7, the viability of cells was measured using a CTG assay kit (CellTitre-Glo;Promega cat no. G7573). Shortly, 40 μl per well of luminescent cell viability assay reagent were dispensed using EL460 liquid dispenser 5 μl cassette. CTG luminescence signal was measured using an EnVision plate reader (PerkinElmer) in accordance with manufacturer's instruction. […] Selectivity with * is artificially high due to limited solubility of the compound hampering accurate measurement of WT CC50.

Structures are written as SMILES.

For `C[C@@H]1CC[C@@H]2Oc3cc(C(F)(F)F)ccc3[C@@H]2N1C(=O)c1cc2c(cn1)nc(N)c1cncn12` (racemic) [Ff-106, Rac-(4-aminoimidazo[1,5-a]pyrido[3,4-e]pyrazin-8-yl)((2R,4aS,9bS)-2-methyl-7-(trifluoromethyl)-3,4,4a,9b-tetrahydrobenzofuro[3,2-b]pyridin-1(2H)-yl)methanone], the CC50 (in general, the concentration at which the toxic effect on the cells reaches its halfway point) is under 0.1 µM. The value for `Nc1nc2cc(F)c(C(=O)N3C[C@H](F)CC4Oc5cc(C(F)(F)F)ccc5[C@@H]43)cc2n2cncc12` (mixture of isomers) [Ff-112, Rac-(4-amino-7-fluoroimidazo[1,5-a]quinoxalin-8-yl)((3R,4aS,9bS)-3-fluoro-7-(trifluoromethyl)-3,4,4a,9b-tetrahydrobenzofuro[3,2-b]pyridin-1(2H)-yl)methanone] was under 0.1 µM. For `Nc1nc2cc(F)c(C(=O)N3CCC[C@@H]4Oc5cc(OC(F)F)c(F)cc5[C@@H]43)cc2n2cncc12` (racemic) [Ff-157, rac-(4-amino-7-fluoroimidazo[1,5-a]quinoxalin-8-yl)((4aS,9bS)-7-(difluoromethoxy)-8-fluoro-3,4,4a,9b-tetrahydrobenzofuro[3,2-b]pyridin-1(2H)-yl)methanone], the CC50 is under 0.1 µM. The same measure for `Nc1nc2cc(F)c(C(=O)N3C[C@H](F)CCC3c3ccc(C(F)(F)F)cn3)cc2n2cncc12` (mixture of isomers) [Ff-228, (4-amino-7-fluoroimidazo[1,5-a]quinoxalin-8-yl)((5R)-5-fluoro-2-(5-(trifluoromethyl)pyridin-2-yl)piperidin-1-yl)methanone]: under 0.1 µM; for `C[C@H]1CCN(C(=O)c2cc3c(cc2F)nc(N)c2cncn23)[C@@H](c2ccc(C(F)(F)F)cc2)C1` (racemic) [Ff-241, Rac-(4-amino-7-fluoroimidazo[1,5-a]quinoxalin-8-yl)((2R,4S)-4-methyl-2-(4-(trifluoromethyl)phenyl)piperidin-1-yl)methanone]: 0.1 to 1 µM; for `Nc1nc2ccc(C(=O)N3CCC[C@@H]4Cc5cc(C(F)(F)F)ccc5[C@@H]43)cc2n2cncc12` (racemic) [Ff-249, Rac-(4-aminoimidazo[1,5-a]quinoxalin-8-yl)((4aR,9bR)-7-(trifluoromethyl)-2,3,4,4a,5,9b-hexahydro-1H-indeno[1,2-b]pyridin-1-yl)methanone]: 0.1 to 1 µM.

As to `Nc1nc2cnc(C(=O)N3CCC[C@@H]4Cc5cc(C(F)(F)F)ccc5[C@@H]43)cc2n2cncc12` (racemic) [Ff-250, Rac-(4-aminoimidazo[1,5-a]pyrido[3,4-e]pyrazin-8-yl)((4aR,9bR)-7-(trifluoromethyl)-2,3,4,4a,5,9b-hexahydro-1H-indeno[1,2-b]pyridin-1-yl)methanone], the CC50 is under 0.1 µM. Regarding `CC1(C)C[C@@H]2Oc3cc(C(F)(F)F)ccc3[C@@H]2N(C(=O)c2cc3c(cc2F)nc(N)c2cncn23)C1` (racemic) [Ff-257, Rac-(4-amino-7-fluoroimidazo[1,5-a]quinoxalin-8-yl)((4aR,9bR)-3,3-dimethyl-7-(trifluoromethyl)-3,4,4a,9b-tetrahydrobenzofuro[3,2-b]pyridin-1(2H)-yl)methanone], the CC50 was under 0.1 µM. The same measure for `CC1(C)C[C@@H]2Oc3cc(C(F)(F)F)ccc3[C@@H]2N(C(=O)c2cc3c(cn2)nc(N)c2cncn23)C1` (racemic) [Ff-258, Rac-(4-aminoimidazo[1,5-a]pyrido[3,4-e]pyrazin-8-yl)((4aR,9bR)-3,3-dimethyl-7-(trifluoromethyl)-3,4,4a,9b-tetrahydrobenzofuro[3,2-b]pyridin-1(2H)-yl)methanone]: under 0.1 µM. The value for `CC1(C)C[C@@H]2Oc3cc(OC(F)(F)F)ccc3[C@@H]2N(C(=O)c2cc3c(cn2)nc(N)c2cncn23)C1` (racemic) [Ff-262, Rac-(4-aminoimidazo[1,5-a]pyrido[3,4-e]pyrazin-8-yl)((4aS,9bS)-3,3-dimethyl-7-(trifluoromethoxy)-3,4,4a,9b-tetrahydrobenzofuro[3,2-b]pyridin-1(2H)-yl)methanone] was 0.1 to 1 µM. The same measure for `C[C@H]1OC[C@@H](N(C)C(=O)c2cc3c(cc2F)nc(N)c2cncn23)c2ccc(C(F)(F)F)cc21` (racemic) [Ff-283, Rac-4-amino-7-fluoro-N-methyl-N-((1R,4S)-1-methyl-7-(trifluoromethyl)isochroman-4-yl)imidazo[1,5-a]quinoxaline-8-carboxamide]: under 0.1 µM; for `C[C@H]1OC[C@@H](N(C)C(=O)c2cc3c(cc2Cl)nc(N)c2cncn23)c2ccc(C(F)(F)F)cc21` (racemic) [Ff-284, Rac-4-amino-7-chloro-N-methyl-N-((1R,4S)-1-methyl-7-(trifluoromethyl)isochroman-4-yl)imidazo[1,5-a]quinoxaline-8-carboxamide]: under 0.1 µM; for `Nc1nc2cc(F)c(C(=O)N3CCC[C@@H]4OCc5cc(OC(F)F)ccc5[C@@H]43)cc2n2cncc12` (racemic) [Ff-287, Rac-(4-amino-7-fluoroimidazo[1,5-a]quinoxalin-8-yl)((4aS,10bS)-8-(difluoromethoxy)-2,3,4,4a,6,10b-hexahydro-1H-isochromeno[4,3-b]pyridin-1-yl)methanone]: under 0.1 µM.

Turning to `Nc1nc2ccc(C(=O)N3CCC[C@@H]4OCc5cc(OC(F)F)ccc5[C@@H]43)cc2n2cncc12` (racemic) [Ff-288, Rac-(4-aminoimidazo[1,5-a]quinoxalin-8-yl)((4aS,10bS)-8-(difluoromethoxy)-2,3,4,4a,6,10b-hexahydro-1H-isochromeno[4,3-b]pyridin-1-yl)methanone], the CC50 was under 0.1 µM. The value for `Nc1nc2cc(F)c(C(=O)N3[C@@H](c4ccc(C(F)(F)F)cn4)CC[C@@H]4C[C@@H]43)cc2n2cncc12` (racemic) [Ff-293, Rac-(4-amino-7-fluoroimidazo[1,5-a]quinoxalin-8-yl)((1S,3R,6R)-3-(5-(trifluoromethyl)pyridin-2-yl)-2-azabicyclo[4.1.0]heptan-2-yl)methanone] was 0.1 to 1 µM.

Turning to `Nc1nc2cc(F)c(C(=O)N3CCC[C@@H]4OCc5cc(-c6ccn(C(F)(F)F)n6)ccc5[C@@H]43)cc2n2cncc12` (racemic) [Ff-294, Rac-(4-amino-7-fluoroimidazo[1,5-a]quinoxalin-8-yl)((4aS,10bS)-8-(1-(trifluoromethyl)-1H-pyrazol-3-yl)-2,3,4,4a,6,10b-hexahydro-1H-isochromeno[4,3-b]pyridin-1-yl)methanone], the CC50 was under 0.1 µM. The value for `Nc1nc2cc(F)c(C(=O)N3CCC[C@@H]4OCc5cc(-c6cnn(C(F)(F)F)c6)ccc5[C@@H]43)cc2n2cncc12` (racemic) [Ff-295, Rac-(4-amino-7-fluoroimidazo[1,5-a]quinoxalin-8-yl)((4aS,10bS)-8-(1-(trifluoromethyl)-1H-pyrazol-4-yl)-2,3,4,4a,6,10b-hexahydro-1H-isochromeno[4,3-b]pyridin-1-yl)methanone] was under 0.1 µM; that for `Nc1nc2cc(F)c(C(=O)N3CCC[C@@H]4OCc5cc(-c6cnn(C(F)F)c6)ccc5[C@@H]43)cc2n2cncc12` (racemic) [Ff-296, Rac-(4-amino-7-fluoroimidazo[1,5-a]quinoxalin-8-yl)((4aS,10bS)-8-(1-(difluoromethyl)-1H-pyrazol-4-yl)-2,3,4,4a,6,10b-hexahydro-1H-isochromeno[4,3-b]pyridin-1-yl)methanone] was under 0.1 µM. The same measure for `Nc1nc2cc(F)c(C(=O)N3CCC[C@@H]4OCc5cc(-c6cnn(C7CC7)c6)ccc5[C@@H]43)cc2n2cncc12` (racemic) [Ff-297, Rac-(4-amino-7-fluoroimidazo[1,5-a]quinoxalin-8-yl)((4aS,10bS)-8-(1-cyclopropyl-1H-pyrazol-4-yl)-2,3,4,4a,6,10b-hexahydro-1H-isochromeno[4,3-b]pyridin-1-yl)methanone]: under 0.1 µM; for `Nc1nc2cc(F)c(C(=O)N3CCC[C@@H]4OCc5cc(-c6ccn(C(F)F)n6)ccc5[C@@H]43)cc2n2cncc12` (racemic) [Ff-298, Rac-(4-amino-7-fluoroimidazo[1,5-a]quinoxalin-8-yl)((4aS,10bS)-8-(1-(difluoromethyl)-1H-pyrazol-3-yl)-2,3,4,4a,6,10b-hexahydro-1H-isochromeno[4,3-b]pyridin-1-yl)methanone]: under 0.1 µM; for `COc1ccc2c(c1F)CO[C@H]1CCCN(C(=O)c3cc4c(cc3F)nc(N)c3cncn34)[C@@H]21` (racemic) [Ff-299, Rac-(4-amino-7-fluoroimidazo[1,5-a]quinoxalin-8-yl)((4aS,10bS)-7-fluoro-8-methoxy-2,3,4,4a,6,10b-hexahydro-1H-isochromeno[4,3-b]pyridin-1-yl)methanone]: under 0.1 µM. Turning to `COc1cc2c(cc1F)[C@H]1[C@H](CCCN1C(=O)c1cc3c(cc1F)nc(N)c1cncn13)OC2` (racemic) [Ff-300, Rac-(4-amino-7-fluoroimidazo[1,5-a]quinoxalin-8-yl)((4aS,10bS)-9-fluoro-8-methoxy-2,3,4,4a,6,10b-hexahydro-1H-isochromeno[4,3-b]pyridin-1-yl)methanone], the CC50 is under 0.1 µM. The value for `Nc1nc2cc(F)c(C(=O)N3CCC[C@@H]4OCc5cc(C6CC6)ccc5[C@@H]43)cc2n2cncc12` (racemic) [Ff-301, Rac-(4-amino-7-fluoroimidazo[1,5-a]quinoxalin-8-yl)((4aS,10bS)-8-cyclopropyl-2,3,4,4a,6,10b-hexahydro-1H-isochromeno[4,3-b]pyridin-1-yl)methanone] was under 0.1 µM.
